What was measured:
[1] = system: human HLA-A24 and β2-microglobulin; experiment: MHC-peptide complex formation assay (ELISA), HLA-A24; format: binding; conditions: MHC-peptide formation rate versus positive control peptide
[2] = system: tumor cells EL4/TAL6/HLA-A2; experiment: Tumor growth after peptide immunization and transplantation of EL4/TAL6/HLA-A2 tumor cells; format: in vivo, mice
Protocol: FIG. 4 is a chart showing inhibition of tumor growth in mice immunized by immunopeptides derived from TAL6. Tumor volume was calculated using the formula: tumor volume=length×width×width/2. Panel (a): HLA-A2 transgenic mice. Panel (b): Wild-type mice.
Peptide 2 or Peptide 5 listed in Table 1 above, mixed with IFA, was administered subcutaneously to HLA-A2 transgenic mice (50 μg/mouse) or wild-type C57BL/6 mice twice in two weeks. Twenty-one days later, each of the immunized mice was transplanted subcutaneously with 2×10^5 of tumor cells EL4/TAL6/HLA-A2 (EL4 cells stably expressing both TAL6 and HLA-A2) to induce tumor growth in the immunized mice. Sizes of the tumors in the treated mice were monitored every 2-3 days. The tumor volume was calculated using the formula: tumor volume=length×width×width/2.

[3] = system: splenocytes from pEK/TAL6-immunized mice; experiment: IFN-γ ELISpot on splenocytes of pEK/TAL6 DNA immunized mice stimulated with TAL6 peptides; format: in vivo; conditions: splenocytes from pEK/TAL6-immunized mice stimulated with the peptide; FIG. 3
[4] = system: T cells (spleen cells from HLA-A2 transgenic mice); experiment: IFN-γ ELISpot on spleen cells of peptide-immunized HLA-A2 transgenic mice; format: in vivo, HLA-A2 transgenic mouse; conditions: 50 μg peptide with PADRE peptide and IFA s.c. twice; spleen cells cultured with 10 μg/mL test peptide; FIG. 1
Protocol: FIG. 1 is a chart showing induction of interferon γ in spleen cells from HLA-A2 transgenic mice immunized with a number of immunogenic peptides from TAL6: peptides 1 (SEQ ID NO:1), 2 (SEQ ID NO:2), 5 (SEQ ID NO:4), 6 (SEQ ID NO:5), 7 (SEQ ID NO:6), 8 (SEQ ID NO:7), 9 (SEQ ID NO:8), 11 (SEQ ID NO: 10), and 14 (SEQ ID NO:12). “NP” refers to absence of any peptide.
(§1) One mg of each of the peptides (test peptides) that were identified as HLA-A2-restricted T-cell epitopes in Examples 1 above and 1 mg of PADRE peptide ([…]; SEQ ID NO:25), both in 0.5 ml PBS, were mixed together with 0.5 mL incomplete Freund's adjuvant (IFA). An EBV-derived HLA-A2-restricted epitope, i.e., […](GLC; SEQ ID NO:35), was used as a positive control and an EBV-derived HAL-A24-restricted epitope, i.e., TYGPVFMCL (TYG; SEQ ID NO:37), was used as negative control. 100 μl of the mixture (containing 50 μg of a test peptide) was injected s.c. into the tail base of a HLA-A2 transgenic mouse, once every 7 days for two times. Spleen cells were harvested from the treated mice 7 days after the second injection and cultured in the presence of 10 μg/mL of the test peptide. The supernatant of the cell culture was subjected to an ELISpot assy to examine the amount of IFN-γ contained therein, which correlates to the activity of the test peptide for stimulating T cells.

[5] = system: T cells (spleen cells from HLA-A24 transgenic mice); experiment: IFN-γ ELISpot on spleen cells of peptide-immunized HLA-A24 transgenic mice; format: in vivo, HLA-A24 transgenic mouse; conditions: HLA-A24 transgenic mice immunized as in Example 2; FIG. 2
Description: FIG. 2 is a chart showing induction of interferon γ in spleen cells from HLA-A24 transgenic mice immunized with a number of immunogenic peptides from TAL6: peptides 17 (SEQ ID NO:14), 18 (SEQ ID NO:15), 20 (SEQ ID NO:16), 21 (SEQ ID NO:17), 22 (SEQ ID NO:18), 23 (SEQ ID NO:19), 24 (SEQ ID NO:20), 26 (SEQ ID NO:21), 27 (SEQ ID NO:22), 29 (SEQ ID NO:41), and 30 (SEQ ID NO:23). “N” refers to a negative control and “P” refers to a positive control.
as §1
Each of the peptides (test peptides) that were identified as HLA-A24-restricted T-cell epitopes in Examples 3 above were used to immunize HAL-A24 transgenic mice, following the procedures described in Example 2 above. EBV peptides GLC and TYG were used as a negative control and a positive control, respectively.

[6] = HLA-A2 transgenic mice, 50 μg/mouse peptide with IFA s.c. twice, FIG. 4 panel (a)

Row | Sequence | Relative binding (%) to HLA-A24 [1] [%] | also measured
1 | GYCVIVAAL (Synthetic HLA-A24 restricted CTL epitope (105-113 aa of TAL6)) [Peptide 24, TAL6 position 105-113] | 117.78 | 
2 | IAANILLYF (Synthetic HLA-A24 restricted CTL epitope (22-30 aa of TAL6)) [Peptide 19, TAL6 position 22-30] | 0.00 | 
3 | HIVEWNVSLF (Synthetic HLA-A24 restricted CTL epitope (154-163 aa of TAL6)) [Peptide 28, TAL6 position 154-163] | 28.03 | 
4 | SLVGLALLC (Synthetic HLA-A2 restricted CTL epitope (13-21 aa of TAL6)) [Peptide 2, TAL6 position 13-21] |  | Inhibition of tumor growth (tumor volume) [2, 6]: reduced tumor growth in the HLA-A2 transgenic mice, albeit in a lower level; IFN-γ-secreting cells activated by test TAL6 peptide [3]: responsive; IFN-γ secretion of T cells [4]: induced IFN-γ secretion of T cells
5 | GGIEFILCL (Synthetic HLA-A24 restricted CTL epitope (170-178 aa of TAL6)) [Peptide 32, TAL6 position 170-178] | 25.29 | 
6 | TFASTEGQYL (Synthetic HLA-A24 restricted CTL epitope (131-140 aa of TAL6)) [Peptide 26, TAL6 position 131-140] | 115.71 | 
7 | FFSGIVGGGL (Synthetic HLA-A24 restricted CTL epitope (49-57 aa of TAL6)) [Peptide 23, TAL6 position 49-57] | 72.36 | 
8 | CYGKCARCI (Synthetic HLA-A24 restricted CTL epitope (2-10 aa of TAL6)) [Peptide 17, TAL6 position 2-10] | 125.73 | 
9 | LLMLLPAFV (Synthetic HLA-A2 restricted CTL epitope (58-66 aa of TAL6)) [Peptide 5, TAL6 position 58-66] |  | Inhibition of tumor growth (tumor volume) [2, 6]: significantly inhibited tumor growth; Inhibition of tumor growth (tumor volume) ([2]; wild-type C57BL/6 mice, peptide with IFA s.c. twice, FIG. 4 panel (b)): not in the wild-type mice; IFN-γ-secreting cells activated by test TAL6 peptide [3]: responsive; IFN-γ secretion of T cells [4]: induced IFN-γ secretion of T cells
10 | HSLVGLALL (Synthetic HLA-A24 restricted CTL epitope (12-20 aa of TAL6)) [Peptide 18, TAL6 position 12-20] | 61.73 | 
11 | TFASTEGQY (Synthetic HLA-A24 restricted CTL epitope (131-139 aa of TAL6)) [Peptide 25, TAL6 position 131-139] | 49.24 | 
12 | GGIEFILCLI (Synthetic HLA-A24 restricted CTL epitope (170-179 aa of TAL6)) [Peptide 33, TAL6 position 170-179] | 14.85 | 
13 | QYLLDTSTW (Synthetic HLA-A24 restricted CTL epitope (138-147 aa of TAL6)) [Peptide 27, TAL6 position 138-147] | 110.75 | IFN-γ secretion of T cells [5]: induced IFN-γ secretion of T cells
14 | EWNVSLFSIL (Synthetic HLA-A24 restricted CTL epitope (157-166 aa of TAL6)) [Peptide 31, TAL6 position 157-166] | 22.24 | 
15 | EWNVSLFSI (Synthetic HLA-A24 restricted CTL epitope (157-165 aa of TAL6)) [Peptide 30, TAL6 position 157-165] | 74.01 | IFN-γ secretion of T cells [5]: induced IFN-γ secretion of T cells
16 | IVEWNVSLF (Synthetic HLA-A24 restricted CTL epitope (155-163 aa of TAL6)) [Peptide 29, TAL6 position 155-163] | 41.01 | IFN-γ secretion of T cells [5]: induced IFN-γ secretion of T cells
17 | KYASENHLS (Synthetic HLA-A24 restricted CTL epitope (36-44 aa of TAL6)) [Peptide 21, TAL6 position 36-44] | 64.59 | 
18 | LYFPNGETKY (Synthetic HLA-A24 restricted CTL epitope (28-36 aa of TAL6)) [Peptide 20, TAL6 position 28-36] | 84.95 | 
19 | RFVWFFSGI (Synthetic HLA-A24 restricted CTL epitope (45-53 aa of TAL6)) [Peptide 22, TAL6 position 45-53] | 91.88 | 
